Calls of active or inactive are those of the source.
Tests used:
[1] = molecular target: T1, Coagulation factor XII (Homo sapiens, UniProt P00748); format: functional;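 further: activated factor XIIa alpha cleaving a fluorogenic AMC peptide substrate; inhibitor potency from loss of enzyme activity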
T1 sequence (P00748 whole entry): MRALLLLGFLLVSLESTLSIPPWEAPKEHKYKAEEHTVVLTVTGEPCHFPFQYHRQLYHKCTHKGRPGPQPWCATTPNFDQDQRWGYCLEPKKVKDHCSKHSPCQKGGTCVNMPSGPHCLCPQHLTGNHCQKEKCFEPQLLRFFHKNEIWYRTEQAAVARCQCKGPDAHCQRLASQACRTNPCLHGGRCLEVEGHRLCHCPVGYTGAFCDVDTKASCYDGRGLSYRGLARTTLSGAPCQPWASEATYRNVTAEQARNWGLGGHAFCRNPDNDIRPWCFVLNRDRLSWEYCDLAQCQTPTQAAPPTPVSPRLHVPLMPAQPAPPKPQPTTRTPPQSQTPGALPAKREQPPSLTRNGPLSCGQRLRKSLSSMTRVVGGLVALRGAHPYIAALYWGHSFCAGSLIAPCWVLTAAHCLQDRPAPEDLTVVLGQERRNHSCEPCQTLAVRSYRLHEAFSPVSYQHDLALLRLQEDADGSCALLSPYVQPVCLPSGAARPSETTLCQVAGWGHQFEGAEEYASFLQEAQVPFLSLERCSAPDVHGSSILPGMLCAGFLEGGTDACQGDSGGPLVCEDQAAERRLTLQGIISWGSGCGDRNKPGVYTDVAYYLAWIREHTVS

[2] = molecular target: T2, Polyadenylate-binding protein 1 (Homo sapiens, UniProt P11940); assay: PABP1 MLLE–PAM2 binding inhibitor potency, dose response, biochemical, fluorescence polarization, FITC-PAM2 peptide (AID 602259); format: functional; conditions: read-out: IC50_Mean
[3] = molecular target: T2, Polyadenylate-binding protein 1; assay: PABP1 MLLE–PAM2 interaction inhibitors, dose response, miRNA deadenylation inhibitor project, biochemical, fluorescence polarization, Cy5-PAM2 peptide, secondary (AID 602260); format: functional; conditions: read-out: IC50_Mean
[4] = inhibitors of intracellular T. cruzi replication, confirmation, NIH3T3 host cells, beta-gal luminescence (AID 2044); format: functional, cell-based;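 further: intracellular parasites grown in NIH/3T3 mouse fibroblasts as host cells; luminescent beta-galactosidase reporter signal from transgenic T. cruzi replicating inside host cells; inhibitors lower the luminescence signal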
[5] = cytotoxicity toward NIH3T3 fibroblasts, dose response, counter-screen, cell-based, ATP luminescence, mouse fibroblasts (AID 2010); format: functional;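 further: cells exposed to compound for about 90 hours before reading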
[6] = molecular target: Latent membrane protein 1 (Human herpesvirus 4 (strain B95-8), UniProt P03230); assay: TES1-eGFP NF-kB reporter inhibition versus Tet-On dsRED, dose response, selectivity assay for LMP1 NF-kB inhibitor project, imaging, HEK293T, dual-color eGFP/dsRED, cherry-picks (AID 588398); format: functional, cell-based
[7] = molecular target: T3, Type-1 angiotensin II receptor (Homo sapiens, UniProt P30556); assay: AT1 receptor antagonists, dose response, selectivity assay for APJ receptor antagonist project, cell-based, uHTS hits (AID 463214); format: functional;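 further: antagonist potency against angiotensin II stimulated AT1 response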
T3 sequence (P30556 whole entry): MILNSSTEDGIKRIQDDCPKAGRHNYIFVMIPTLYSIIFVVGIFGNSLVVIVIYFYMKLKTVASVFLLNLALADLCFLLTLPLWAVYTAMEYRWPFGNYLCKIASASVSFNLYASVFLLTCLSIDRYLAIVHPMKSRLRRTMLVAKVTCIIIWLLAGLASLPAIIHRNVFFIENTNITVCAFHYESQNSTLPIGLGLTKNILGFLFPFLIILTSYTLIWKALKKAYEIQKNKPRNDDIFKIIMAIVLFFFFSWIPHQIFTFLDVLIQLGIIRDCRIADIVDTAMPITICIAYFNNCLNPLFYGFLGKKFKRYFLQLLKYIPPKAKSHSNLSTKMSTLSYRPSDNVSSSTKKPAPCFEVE

[8] = cytotoxicity in KRAS-transformed pancreatic duct cells, primary screen, cell-based, fluorescence, HTS (AID 431); format: functional; conditions: Homo sapiens;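 further: cell line used: HPDE-C7K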
[9] = cytotoxicity in HPDE-C7 cells, cell-based, fluorescence, HTS (AID 430); format: functional; conditions: Homo sapiens
[10] = molecular target: Beta-galactosidase (Escherichia coli, UniProt Q8VNN2); assay: PubChem AID 485352; format: functional
[11] = Fluorescence-based cell-based high throughput dose response assay for inhibitors of the interaction of nucleotide-binding oligomerization domain containing 2 (NOD2) and the receptor-interacting serine-threonine kinase 2 (RIPK2).; format: functional; conditions: Homo sapiens
[12] = HeLa cell cytotoxicity, dose response, cytotoxicity control for MgcRacGAP inhibitor project (AID 624300); format: functional
[13] = system: INS1; assay: beta cell apoptosis inhibitors, cytokine rescue, dose response, luminescence, retest (AID 449756); format: functional, cell-based; conditions: Rattus norvegicus;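 further: cell death triggered by IL-1 beta plus TNF-alpha plus IFN-gamma mixture; protective hits raise ATP signal compared with cytokine alone wells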
[14] = molecular target: Phospholipase D1 (Homo sapiens, UniProt Q13393); assay: PLD1 inhibitor potency in cells, dose response (AID 602151); format: functional;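 further: cellular PLD1 assay in Calu-1 cells stimulated with PMA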
[15] = molecular target: Phospholipase D2 (Homo sapiens, UniProt O14939); assay: PLD2 inhibitor potency in cells, dose response (AID 602147); format: functional;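 further: cellular assay in HEK293 cells overexpressing GFP-tagged PLD2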
[16] = system: Streptococcus; assay: Group A Streptococcus viability loss, dose response, counter-screen for streptokinase expression inhibitor project, luminescence, BacTiterGlo (AID 1915); format: functional, organism-based;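 further: potency for reduction of bacterial viability or growth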
[17] = inhibitors of firefly luciferase expression or activity, dose response, H4 neuroglioma cells, luminescence (AID 1990); format: functional, cell-based
[18] = system: Streptococcus sp. 'group A'; assay: growth inhibition of control SK(-) GAS strain, dose response, counter-screen for streptokinase expression inhibitor project, luminescence, kanamycin, BacTiterGlo, confirmation (AID 1900); format: functional, organism-based
[19] = Luminescence Cell-Based Dose Response HTS to Identify Inhibitors of 5'UTR Stem-Loop Driven Prion Protein mRNA Translation in H4 Neuroglioblastoma Cells. [Related pubchem assays: 1827 (Project Summary), 1813 (Primary HTS)]; format: functional
[20] = molecular target: Heat shock protein HSP 90-alpha (Homo sapiens, UniProt P07900); format: functional, organism-based
[21] = inhibitors of SNCA 5'UTR-driven reporter translation, confirmation, H4 neuroglioma cells, luminescence (AID 1988); format: functional, cell-based
[22] = microbe, parasite or virus in culture; format: functional; conditions: Mycobacterium tuberculosis

Sequence of Phospholipase D2 (O14939 whole entry): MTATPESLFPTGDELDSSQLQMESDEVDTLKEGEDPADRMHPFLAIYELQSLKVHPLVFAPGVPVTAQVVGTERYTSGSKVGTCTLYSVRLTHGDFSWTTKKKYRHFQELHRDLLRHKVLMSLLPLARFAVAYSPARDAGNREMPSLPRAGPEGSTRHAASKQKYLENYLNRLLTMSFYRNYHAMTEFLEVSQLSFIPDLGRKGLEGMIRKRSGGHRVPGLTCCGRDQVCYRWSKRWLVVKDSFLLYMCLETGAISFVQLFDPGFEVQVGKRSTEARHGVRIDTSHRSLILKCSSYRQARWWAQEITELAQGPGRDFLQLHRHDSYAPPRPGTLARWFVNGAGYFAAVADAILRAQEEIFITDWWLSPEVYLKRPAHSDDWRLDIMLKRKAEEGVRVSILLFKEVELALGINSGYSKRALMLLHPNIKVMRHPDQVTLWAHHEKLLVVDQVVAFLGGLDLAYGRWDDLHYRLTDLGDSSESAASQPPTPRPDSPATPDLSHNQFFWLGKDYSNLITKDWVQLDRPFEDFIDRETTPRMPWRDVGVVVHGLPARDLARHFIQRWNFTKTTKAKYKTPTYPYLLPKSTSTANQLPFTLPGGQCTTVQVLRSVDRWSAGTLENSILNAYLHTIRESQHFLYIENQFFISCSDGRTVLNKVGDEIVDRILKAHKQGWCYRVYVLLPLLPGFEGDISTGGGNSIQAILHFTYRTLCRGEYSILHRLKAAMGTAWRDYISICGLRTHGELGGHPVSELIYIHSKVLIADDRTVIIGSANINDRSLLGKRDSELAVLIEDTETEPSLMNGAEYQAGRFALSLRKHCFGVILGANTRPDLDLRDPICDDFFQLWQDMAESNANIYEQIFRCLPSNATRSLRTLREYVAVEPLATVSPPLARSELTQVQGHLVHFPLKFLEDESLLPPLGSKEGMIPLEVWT
T2 sequence (P11940 whole entry): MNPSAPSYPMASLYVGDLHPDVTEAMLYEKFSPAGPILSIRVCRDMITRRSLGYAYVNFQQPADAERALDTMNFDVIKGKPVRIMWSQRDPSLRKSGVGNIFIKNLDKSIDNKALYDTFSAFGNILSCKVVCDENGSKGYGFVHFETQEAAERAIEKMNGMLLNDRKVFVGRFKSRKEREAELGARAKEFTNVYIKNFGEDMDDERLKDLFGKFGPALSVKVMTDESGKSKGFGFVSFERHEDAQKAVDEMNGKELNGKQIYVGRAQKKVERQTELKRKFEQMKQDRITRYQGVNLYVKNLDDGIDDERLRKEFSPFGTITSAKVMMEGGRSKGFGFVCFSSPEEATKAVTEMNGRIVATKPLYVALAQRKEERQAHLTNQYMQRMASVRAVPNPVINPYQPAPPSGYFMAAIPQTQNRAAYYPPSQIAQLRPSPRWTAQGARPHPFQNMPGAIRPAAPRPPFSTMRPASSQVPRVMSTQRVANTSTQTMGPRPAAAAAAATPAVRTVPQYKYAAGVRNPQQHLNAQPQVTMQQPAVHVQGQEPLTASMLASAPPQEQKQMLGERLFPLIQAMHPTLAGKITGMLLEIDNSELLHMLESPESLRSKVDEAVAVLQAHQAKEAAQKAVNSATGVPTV
Sequence of Beta-galactosidase (Q8VNN2 whole entry, the tested form may be a part): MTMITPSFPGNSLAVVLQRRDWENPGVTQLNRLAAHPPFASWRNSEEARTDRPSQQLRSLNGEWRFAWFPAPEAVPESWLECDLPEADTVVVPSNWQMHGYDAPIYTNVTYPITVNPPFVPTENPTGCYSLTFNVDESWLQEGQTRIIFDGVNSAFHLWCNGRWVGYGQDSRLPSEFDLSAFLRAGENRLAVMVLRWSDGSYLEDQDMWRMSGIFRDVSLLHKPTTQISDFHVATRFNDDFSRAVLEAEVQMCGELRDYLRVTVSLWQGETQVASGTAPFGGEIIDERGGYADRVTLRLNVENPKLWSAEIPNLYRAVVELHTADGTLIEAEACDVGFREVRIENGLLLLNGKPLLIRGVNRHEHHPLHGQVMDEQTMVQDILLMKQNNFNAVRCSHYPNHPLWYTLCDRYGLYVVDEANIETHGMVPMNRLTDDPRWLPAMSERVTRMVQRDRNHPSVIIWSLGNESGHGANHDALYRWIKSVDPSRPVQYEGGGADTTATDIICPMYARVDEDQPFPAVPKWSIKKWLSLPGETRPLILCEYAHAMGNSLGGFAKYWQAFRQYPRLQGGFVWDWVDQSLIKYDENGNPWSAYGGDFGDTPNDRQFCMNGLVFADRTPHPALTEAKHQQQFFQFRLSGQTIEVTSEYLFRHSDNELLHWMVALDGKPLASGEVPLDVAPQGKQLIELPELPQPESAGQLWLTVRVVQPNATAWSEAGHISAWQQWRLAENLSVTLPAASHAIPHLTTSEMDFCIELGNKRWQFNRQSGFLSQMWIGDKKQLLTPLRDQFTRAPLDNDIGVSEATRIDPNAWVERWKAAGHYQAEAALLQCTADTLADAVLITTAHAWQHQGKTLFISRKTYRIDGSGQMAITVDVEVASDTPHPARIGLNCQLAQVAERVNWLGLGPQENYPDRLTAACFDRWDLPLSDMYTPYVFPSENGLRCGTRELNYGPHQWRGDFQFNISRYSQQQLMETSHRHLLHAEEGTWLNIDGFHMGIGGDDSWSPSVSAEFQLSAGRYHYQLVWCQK
Sequence of Phospholipase D1 (Q13393 whole entry): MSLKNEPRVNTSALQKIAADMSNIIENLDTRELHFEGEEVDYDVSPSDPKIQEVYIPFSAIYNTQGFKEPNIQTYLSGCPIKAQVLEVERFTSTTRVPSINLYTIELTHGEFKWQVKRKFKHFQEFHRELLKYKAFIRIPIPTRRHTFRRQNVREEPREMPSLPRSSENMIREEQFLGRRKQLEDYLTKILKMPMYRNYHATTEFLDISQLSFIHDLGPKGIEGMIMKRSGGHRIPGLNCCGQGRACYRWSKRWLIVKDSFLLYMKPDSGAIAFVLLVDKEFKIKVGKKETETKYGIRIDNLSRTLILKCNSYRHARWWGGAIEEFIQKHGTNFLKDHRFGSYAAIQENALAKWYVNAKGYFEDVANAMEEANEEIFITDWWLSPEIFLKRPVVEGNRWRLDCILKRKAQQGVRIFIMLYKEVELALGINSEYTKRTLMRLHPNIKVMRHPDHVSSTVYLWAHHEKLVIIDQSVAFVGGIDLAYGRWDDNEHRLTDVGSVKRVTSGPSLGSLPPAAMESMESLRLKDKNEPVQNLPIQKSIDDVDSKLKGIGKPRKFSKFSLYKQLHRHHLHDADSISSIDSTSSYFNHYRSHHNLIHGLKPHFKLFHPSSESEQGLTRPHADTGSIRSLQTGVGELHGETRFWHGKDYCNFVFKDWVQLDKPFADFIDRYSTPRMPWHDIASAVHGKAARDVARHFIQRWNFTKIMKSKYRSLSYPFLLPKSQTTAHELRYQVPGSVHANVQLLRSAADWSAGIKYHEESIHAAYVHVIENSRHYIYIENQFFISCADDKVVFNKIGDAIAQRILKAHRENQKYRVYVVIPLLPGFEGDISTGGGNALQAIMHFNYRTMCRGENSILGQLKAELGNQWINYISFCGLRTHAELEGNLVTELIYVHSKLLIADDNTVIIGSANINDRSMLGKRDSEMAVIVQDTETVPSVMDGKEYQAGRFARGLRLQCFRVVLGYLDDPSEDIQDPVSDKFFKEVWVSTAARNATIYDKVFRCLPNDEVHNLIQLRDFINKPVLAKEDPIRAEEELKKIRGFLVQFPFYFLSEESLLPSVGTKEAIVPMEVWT
Sequence of Latent membrane protein 1 (P03230 whole entry): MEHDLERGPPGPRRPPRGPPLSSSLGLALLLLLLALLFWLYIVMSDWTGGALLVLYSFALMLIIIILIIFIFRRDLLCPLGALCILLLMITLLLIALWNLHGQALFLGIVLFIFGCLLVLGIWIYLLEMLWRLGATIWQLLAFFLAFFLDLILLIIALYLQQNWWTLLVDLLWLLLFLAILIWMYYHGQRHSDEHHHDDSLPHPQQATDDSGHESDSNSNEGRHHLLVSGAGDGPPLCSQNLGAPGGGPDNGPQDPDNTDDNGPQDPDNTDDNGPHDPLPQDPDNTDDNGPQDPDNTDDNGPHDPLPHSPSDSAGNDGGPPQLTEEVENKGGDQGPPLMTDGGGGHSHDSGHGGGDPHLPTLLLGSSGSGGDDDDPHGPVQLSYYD

With C=CCn1c(O)c(N=NC(S)=Nc2ccccc2F)c2cc(S(=O)(=O)N3CCOCC3)ccc21 the IC50 [1] was > 50 µM (inconclusive), the IC50 [2] was > 66 µM (inactive) and the IC50 [3] was > 66 µM (inactive). The EC50 [4] was 0.495 µM (active), the EC50 [5] was 2.84 µM (active) and the AC50 [6] was 38.3 µM (active).
In the case of CC1(C)CC(=O)C2=C(C1)OC1=C(C(=O)CC(C)(C)C1)C2c1ccc(O)cc1O, the IC50 [7] was 9.76 µM (active), the EC50 [8] was 7.07 µM (active) and the EC50 [9] was 5.63 µM (active). For the same compound, the EC50 [10] was > 40 µM (inactive), the IC50 [11] was 1.36 µM (active) and the CC50 [12] was 50 µM (active). The AC50 [13] was 6.76 µM (active).
With O=C(NCCN1CCC2(CC1)C(=O)NCN2c1cccc(F)c1)c1cccc(F)c1 the IC50 [14] was 24 µM (active) and the IC50 [15] was 1.49 µM (active).
With Cc1ccc(C(=O)N[C@@H](C)CN2CCC(n3c(=O)[nH]c4cc(Cl)ccc43)CC2)cc1 the IC50 [14] was 0.011 µM (active) and the IC50 [15] was 1.05 µM (active).
For CNc1ccc2oc(C[C@H]3O[C@@]4(CC[C@H]3C)O[C@H]([C@H](C)C(=O)c3ccc[nH]3)[C@H](C)C[C@H]4C)nc2c1C(=O)O [CALCIMYCIN], the IC50 [7] was > 40 µM (not active), the EC50 [16] was 0.128 µM (active) and the EC50 [17] was 0.293 µM (active). For the same compound, the EC50 [18] was < 0.06 µM (active), the EC50 [19] was 0.267 µM (active) and the AC50 [20] was 1.07 µM (active). The EC50 [21] was 0.172 µM (active), the EC50 [10] was > 40 µM (inactive) and the CC50 [22] was 0.319 µM (active). For the same compound, the AC50 [13] was 2.08 µM (active).

— ChEMBL document CHEMBL1201862, “PubChem BioAssay data set” (2004)
